Data reported in patent US12064405B2, “Immunosuppressant comprising TSAHC or a pharmaceutically acceptable salts thereof as an active ingredient” (Seoul National University R&DB Foundation, priority 2020, dated 2024).

What was measured:
[1] = system: cell lines expressing TM4SF5; experiment: qRT-PCR of M1-type macrophage chemokines/cytokines CCL2, TNF-α, IL-6, IL-1β; format: cell-based; settings: cell line expressing TM4SF5, LPS and IFN-γ
Method: Cell lines not expressing TM4SF5 (EV) or cell lines expressing thereof (TM4SF5) were treated (+) or not treated with LPS and IFN-γ, treated (+) or not treated with 2-DG (2-Deoxy-D-glucose) as a drug for inhibiting glycolysis at a given concentration, and additionally treated (+) or not treated with TSAHC (−). Then, the mRNA expression levels of CCL2, TNF-α, IL-6, and IL-1β, the chemokines/cytokines indicating the activation of M1-type macrophages, were confirmed by qRT-PCR.

[2] = system: SNU449-TM4SF5-HA cell line; experiment: RNA-Seq / mRNA-Seq of inflammatory cytokine and chemokine expression in TM4SF5-expressing hepatic epithelial cells; format: cell-based, human; settings: 10 μM TSAHC for 24 hours
Method: To confirm whether the TSAHC treatment affects the expression and secretion of inflammatory cytokines and chemokines in TM4SF5 expression-dependent hepatic epithelial cells, RNA-Seq analysis and mRNA-Seq analysis comparing the mRNA expression were performed in SNU449-HA cell line in which the control vector was safely injected into SNU449, SNU449-TM4SF5-HA cell line injected with TM4SF5 expression vector, and SNU449-TM4SF5-HA cell line treated with 10 μM of TSAHC for 24 hours using the liver tissue of Tg^TM4SF5 overexpressing TM4SF5 or Tm4sf5^−/− KO C57BL/6 mice in Macrogen, Inc. (Seoul, Korea).
The experimental procedure for mRNA-Seq analysis included the followings. […] RNA library was constructed through qPCR using an agilent technologies 2100 bioanalyzer according to qPCR quantification protocol guide. Quality control analysis of the raw reads obtained through sequencing was performed. […] Aligned reads were generated after mapping the pre-treated reads to reference genome using HISAT2 program considering splice. Transcript assembly was performed through the String Tie program using paired information of the aligned reads based on the reference. The expression level obtained through the transcript quantification of each sample was calculated as a normalization value considering the transcript length and depth of coverage. […]

[3] = system: Hep3B cell line expressing TM4SF5; experiment: qRT-PCR of CCL20 and CXCL10 mRNA in IL-6-treated Hep3B cell line; format: cell-based, human; settings: IL-6 100 ng/ml, TSAHC 0.1 or 0.5 μM for 24 hours
Method: Hep3B cell line expressing TM4SF5 that was not treated with IL-6 or treated at a concentration of 100 ng/ml was treated with or without TSAHC at a concentration of 0.1 or 0.5 μM for 24 hours. Then, qRT-PCR was performed using the cells.
Specifically, to perform qRT-PCR, the cells or tissues were disrupted using Qiazol (Qiagen, USA), to which chloroform was added, and the upper […] layer was separated by centrifugation at 4° C., 12,000×g for 15 minutes. RNA was precipitated by adding isopropanol to the separated […] layer, followed by washing with 70% ethanol. RNA pellet was isolated by centrifugation at 7,500×g for 5 minutes, ethanol was evaporated for 10 minutes, and dissolved in 30 μl of DEPC-water. After removing gDNA from the dissolved RNA, it was reverse transcribed using a reverse transcription kit (Toyobo, Japan) to obtain cDNA. The expression was measured by real-time PCR (Biorad, USA) with the obtained cDNA using 2×Eva green master mix (Labopass, Korea) and 0.4 μM forward/reverse primers. The expression amount was calculated using the modified delta-delta Ct method of Pfaffl.

TM4SF5 and IL6-Rα = target: T1, TM4SF5 and IL6-Rα (Homo sapiens, UniProt O14894); experiment: Binding of TM4SF5 and IL6-Rα (streptavidin-agarose precipitation, Western blotting); format: cell-based; settings: hepatic epithelial cells expressing TM4SF5-Strep; FIG. 10
T1 construct: expressed in transfected cells
T1 sequence (O14894 1-197): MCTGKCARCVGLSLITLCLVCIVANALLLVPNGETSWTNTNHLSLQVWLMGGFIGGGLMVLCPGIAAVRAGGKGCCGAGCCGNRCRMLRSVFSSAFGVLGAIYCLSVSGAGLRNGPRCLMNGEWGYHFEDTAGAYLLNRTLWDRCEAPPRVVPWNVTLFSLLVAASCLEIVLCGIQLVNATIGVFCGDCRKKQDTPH
Method: Hepatic epithelial cells were infected with an empty vector (EV) or lentivirus expressing TM4SF5, and TSAHC was not treated (−) or treated (+) thereto. A cell extract was obtained, and TM4SF5-Strep was precipitated using strepavidin-agarose beads, and then Western blotting was performed with the IL-6 receptor, IL-6Rα antibody.

cells expressing TM4SF5 = experiment: Activation of glycolytic function (acidification of extracellular solution, Seahorse); format: cell-based
Method: The cells expressing TM4SF5 were treated with vehicle, a negative control compound (4′-methoxy-4-dihydroxychalcone) or TSAHC. Then, the degree of activation of glycolytic function was measured by measuring the acidification of the extracellular solution due to glycolysis while additionally adding glucose at various concentrations using Seahorse equipment.

[4] = system: mouse model in which liver fibrosis is induced by the treatment of CCl4; experiment: CCl4-induced liver damage, inflammation and fibrosis mouse model with TSAHC treatment; format: in vivo; settings: CCl4-treated mice, 4 weeks
Method: In a mouse animal model that can be accompanied by cell damage and inflammation when liver fibrosis is induced by the treatment of CCl4, the animal groups periodically treated (+) or not treated (−) with TSAHC during the CCl4 treatment were obtained. The body weight during 4 weeks of the treatment and the liver tissue weight after 4 weeks were calculated as a ratio (liver/body weight), or the ALT liver levels were measured from blood samples. The liver tissue was obtained and Tm4sf5 mRNA was measured by qRT-PCR.
In an animal model treated with CCl4 to induce liver fibrosis, the animal groups periodically treated (+) or not treated (−) with TSAHC during the CCl4 treatment were obtained. After 4 weeks of the treatment, the liver tissue was obtained and H&E and Masson's trichrome staining was performed.
In an animal model treated with CCl4 to induce liver fibrosis, the animal groups periodically treated (+) or not treated (−) with TSAHC during the CCl4 treatment were obtained. After 4 weeks of the treatment, the liver tissue was obtained and immunostaining was performed for Ccl20 and Cxcl10.
(§1) In a mouse model that can be accompanied by cell damage and inflammation when liver fibrosis is induced by CCl4 treatment, the animal groups periodically treated (+) or not treated (−) with TSAHC during the CCl4 treatment were obtained. After 4 weeks of the treatment, the liver tissue was obtained and immunostaining was performed for F4/80, a macrophage marker.
as §1, with “α-SMA indicating the activation of hepatic stellate cells.” for “F4/80, a macrophage marker.”

Cc1ccc(S(=O)(=O)Nc2ccc(C(=O)/C=C/c3ccc(O)cc3)cc2)cc1 [TSAHC, 4′-(p-toluenesulfonylamido)-4-hydroxychalcone]
CCL2 mRNA expression level ([1]; FIG. 11A): decreased
TNF-α mRNA expression level ([1]; FIG. 11B): decreased
IL-6 mRNA expression level ([1]; FIG. 11C): decreased
IL-1β mRNA expression level ([1]; FIG. 11D): decreased
expression and secretion of cytokines/chemokines (IL6, IL1β, TNFα, CXCL1, CXCL2, CXCL3, CXCL6, CXCL8, CCL2, CCL5, CCL20, CXCL10, CCR10) according to TM4SF5 expression [2]: suppressed
CCL20 mRNA expression level increased by IL-6 ([3]; FIG. 4A): reduced
CXCL10 mRNA expression level increased by IL-6 ([3]; FIG. 4B): reduced
binding of TM4SF5 and IL6-Rα (TM4SF5 and IL6-Rα): inhibited
glycolysis of the cells not expressing TM4SF5 (EV) (cells expressing TM4SF5; EV cell line, FIG. 8B): not changed
glycolytic function of cells expressing TM4SF5 (cells expressing TM4SF5; various concentrations of glucose added, FIG. 8C): decreased
Tm4sf5 mRNA expression level in liver tissue ([4]; FIG. 19A): decreased
liver tissue weight and body weight (ratio liver/body weight) ([4]; FIG. 19C): decreased
collagen accumulation (Masson's trichrome staining) ([4]; FIG. 20): decreased
degree of liver tissue damage / irregular cell composition (H&E staining) ([4]; FIG. 20): decreased
Ccl20 mRNA expression level in liver tissue ([4]; FIG. 21): decreased
Cxcl10 mRNA expression level in liver tissue ([4]; FIG. 21): decreased
F4/80 mRNA expression in liver tissue ([4]; FIG. 22B): decreased
α-SMA mRNA expression in liver tissue ([4]; FIG. 23B): decreased
ALT level ([4]; blood samples, FIG. 19B): decreased
